Assay results published in the NIST ThermoML archive (doi:10.1021/je200721d).

Test: xn = mol fraction of the nth substance listed
Conditions: Liquid, Vibrating tube method

CCCCCCCCCC [decane] + CCCCCC
Conditions	mass density [kg/m3]
352.99 K, 19000 kPa, x2 = 0.7524	655.43
352.99 K, 20000 kPa, x2 = 0.0456	701.21
352.99 K, 20000 kPa, x2 = 0.7524	656.5
352.99 K, 21000 kPa, x2 = 0.0456	702.11
352.99 K, 21000 kPa, x2 = 0.7524	657.54
352.99 K, 22000 kPa, x2 = 0.0456	702.98
352.99 K, 22000 kPa, x2 = 0.7524	658.56
352.99 K, 23000 kPa, x2 = 0.0456	703.83
352.99 K, 23000 kPa, x2 = 0.7524	659.55
352.99 K, 24000 kPa, x2 = 0.0456	704.67
352.99 K, 24000 kPa, x2 = 0.7524	660.56
352.99 K, 25000 kPa, x2 = 0.0456	705.49
352.99 K, 25000 kPa, x2 = 0.7524	661.49
353 K, 1000 kPa, x2 = 0.2185	673.09
353 K, 2000 kPa, x2 = 0.2185	674.25
353 K, 3000 kPa, x2 = 0.2185	675.39
353 K, 4000 kPa, x2 = 0.2185	676.51
353 K, 5000 kPa, x2 = 0.2185	677.65
353 K, 6000 kPa, x2 = 0.2185	678.75
353 K, 7000 kPa, x2 = 0.2185	679.82
353 K, 8000 kPa, x2 = 0.2185	680.92
353 K, 9000 kPa, x2 = 0.2185	681.98
353 K, 10000 kPa, x2 = 0.2185	683.03
353 K, 11000 kPa, x2 = 0.2185	684.07
353 K, 12000 kPa, x2 = 0.2185	685.08
353 K, 13000 kPa, x2 = 0.2185	686.09
353 K, 14000 kPa, x2 = 0.2185	687.09
353 K, 15000 kPa, x2 = 0.2185	688.08
353 K, 16000 kPa, x2 = 0.2185	689.03
353 K, 17000 kPa, x2 = 0.2185	689.97
353 K, 18000 kPa, x2 = 0.2185	690.9
353 K, 19000 kPa, x2 = 0.2185	691.79
353 K, 20000 kPa, x2 = 0.2185	692.7
353 K, 21000 kPa, x2 = 0.2185	693.59
353 K, 22000 kPa, x2 = 0.2185	694.47
353 K, 23000 kPa, x2 = 0.2185	695.35
353 K, 24000 kPa, x2 = 0.2185	696.22
353 K, 25000 kPa, x2 = 0.2185	697.07
353.01 K, 1000 kPa, x2 = 0.4968	654.56
353.01 K, 2000 kPa, x2 = 0.4968	655.89
353.01 K, 3000 kPa, x2 = 0.4968	657.2
353.01 K, 4000 kPa, x2 = 0.4968	658.52
353.01 K, 5000 kPa, x2 = 0.4968	659.83
353.01 K, 6000 kPa, x2 = 0.4968	661.12
353.01 K, 7000 kPa, x2 = 0.4968	662.3
353.01 K, 8000 kPa, x2 = 0.4968	663.52
353.01 K, 9000 kPa, x2 = 0.4968	664.66
353.01 K, 10000 kPa, x2 = 0.4968	665.8
353.01 K, 11000 kPa, x2 = 0.4968	666.94
353.01 K, 12000 kPa, x2 = 0.4968	668.05
353.01 K, 13000 kPa, x2 = 0.4968	669.13
353.01 K, 14000 kPa, x2 = 0.4968	670.21
353.01 K, 15000 kPa, x2 = 0.4968	671.26
353.01 K, 16000 kPa, x2 = 0.4968	672.3
353.01 K, 17000 kPa, x2 = 0.4968	673.3
353.01 K, 18000 kPa, x2 = 0.4968	674.32
353.01 K, 19000 kPa, x2 = 0.4968	675.27
353.01 K, 20000 kPa, x2 = 0.4968	676.25
353.01 K, 21000 kPa, x2 = 0.4968	677.22
353.01 K, 22000 kPa, x2 = 0.4968	678.15
353.01 K, 23000 kPa, x2 = 0.4968	679.08
353.01 K, 24000 kPa, x2 = 0.4968	680
353.01 K, 25000 kPa, x2 = 0.4968	680.91
362.59 K, 1000 kPa, x2 = 0.8991	607.57
362.59 K, 2000 kPa, x2 = 0.8991	609.29
362.59 K, 3000 kPa, x2 = 0.8991	610.97
362.59 K, 4000 kPa, x2 = 0.8991	612.62
362.59 K, 5000 kPa, x2 = 0.8991	614.24
362.59 K, 6000 kPa, x2 = 0.8991	615.83
362.59 K, 7000 kPa, x2 = 0.8991	617.37
362.59 K, 8000 kPa, x2 = 0.8991	618.92
362.59 K, 9000 kPa, x2 = 0.8991	620.4
362.59 K, 10000 kPa, x2 = 0.8991	621.89
362.59 K, 11000 kPa, x2 = 0.8991	623.32
362.59 K, 12000 kPa, x2 = 0.8991	624.72
362.59 K, 13000 kPa, x2 = 0.8991	626.12
362.59 K, 14000 kPa, x2 = 0.8991	627.49
362.59 K, 15000 kPa, x2 = 0.8991	628.8
362.59 K, 16000 kPa, x2 = 0.8991	630.11
362.59 K, 17000 kPa, x2 = 0.8991	631.37
362.59 K, 18000 kPa, x2 = 0.8991	632.62
362.59 K, 19000 kPa, x2 = 0.8991	633.83
362.59 K, 20000 kPa, x2 = 0.8991	635.04
362.59 K, 21000 kPa, x2 = 0.8991	636.21
362.59 K, 22000 kPa, x2 = 0.8991	637.35
362.59 K, 23000 kPa, x2 = 0.8991	638.45
362.59 K, 24000 kPa, x2 = 0.8991	639.52
362.59 K, 25000 kPa, x2 = 0.8991	640.65
362.91 K, 1000 kPa, x2 = 0.0456	674.5
362.91 K, 2000 kPa, x2 = 0.0456	675.7
362.91 K, 3000 kPa, x2 = 0.0456	676.88
362.91 K, 4000 kPa, x2 = 0.0456	678.04
362.91 K, 5000 kPa, x2 = 0.0456	679.18
362.91 K, 6000 kPa, x2 = 0.0456	680.32
